Among the data in US7247634B2, “Rifamycin derivatives effective against drug-resistant microbes” (Cumbre Pharmaceuticals Inc., priority 2004, dated 2007) are MIC values, retold here.

What all share (format): cell-based
The test system of experiment [1] is Staphylococcus aureus ATCC29213. Kind of experiment: MIC, microbroth dilution (NCCLS). The following applies: rifS strain, Cation-Adjusted Mueller-Hinton Broth, 37° C., read-out: Antimicrobial activity (MIC). (In broth dilution the organism is exposed to a series of concentrations in liquid medium.)
Experiment [2] deals with Staphylococcus aureus ATCC29213 rpoB^D417Y. Kind of experiment: microbe, parasite or virus in culture. The conditions noted are these: ATCC29213, read-out: Antimicrobial activity (MIC). As for the experimental part: (§1) Representative compounds were assayed for antimicrobial activity as follows: Minimum Inhibitory Concentrations (“MICs”) were determined by the microbroth dilution method as per NCCLS guidelines (National Committee for Clinical Laboratory Standards. 2000. Methods for dilution antimicrobial susceptibility tests for bacteria that grow aerobically, 5th ed. M7-A5. National Committee for Clinical Laboratory Standards, Wayne, Pa.), except that all growth incubations were conducted at 37° C. Bacterial cultures were tested in the following bacteriological media: S. aureus, S. epidermidis, and E. coli in Cation-Adjusted Mueller-Hinton Broth, S. pneumoniae in THY Broth supplemented with 1 mg/mL catalase under 5% CO2 atmosphere, S. pyogenes in THY Broth, E. faecalis in BHI Broth, H. influenzae in BHI Broth supplemented with 0.75 μL of 1 mg/mL NAD and 150 μL of 1 mg/ml hematin per 5 mL, and M. smegmatis in Middlebrook Broth plus ADC Enrichment.
(§2) S. aureus ATCC 29213 RpoB^H418Y is a rifampin-resistant strain with a mutation in RNA polymerase, the biological target of rifamycin antibiotics. […] S. aureus EN1252a gyrA^S84L grlA^S80F is a quinolone-resistant strain due to double mutations to DNA gyrase and topoisomerase IV, the two biological targets for quinolone antibiotics.

Experiment [3] deals with Staphylococcus aureus ATCC29213 rpoB^H418Y. Kind of experiment: microbe, parasite or virus in culture. The following applies: ATCC29213, read-out: Antimicrobial activity (MIC). As for the experimental part: as §1, §2
Experiment [4] has as its system Staphylococcus aureus EN1252a gyrA^S84L grlA^S80F. Kind of experiment: microbe, parasite or virus in culture. The following applies: read-out: Antimicrobial activity (MIC). As for the experimental part:
as §1, §2

Experiment [5] has as its system Staphylococcus epidermidis ATCC12228. Kind of experiment: MIC, microbroth dilution (NCCLS). The conditions noted are these: rifS strain, Cation-Adjusted Mueller-Hinton Broth, 37° C., read-out: Antimicrobial activity (MIC).
The test system of experiment [6] is Streptococcus pneumoniae ATCC6303. Kind of experiment: MIC, microbroth dilution (NCCLS). The following applies: rifS strain, THY Broth with 1 mg/mL catalase, 5% CO2, 37° C., read-out: Antimicrobial activity (MIC).
Experiment [7] relates to Streptococcus pyogenes ATCC19615. Kind of experiment: MIC, microbroth dilution (NCCLS). The following applies: rifS strain, THY Broth, 37° C., read-out: Antimicrobial activity (MIC).
Experiment [8] has as its system Enterococcus faecalis ATCC29212. Kind of experiment: MIC, microbroth dilution (NCCLS). The conditions noted are these: rifS strain, BHI Broth, 37° C., read-out: Antimicrobial activity (MIC).
Experiment [9] has as its system Haemophilus influenzae ATCC10211. Kind of experiment: MIC, microbroth dilution (NCCLS). The conditions noted are these: rifS strain, BHI Broth with NAD and hematin, 37° C., read-out: Antimicrobial activity (MIC).
For experiment [10], the system named is Escherichia coli ATCC25922. Kind of experiment: MIC, microbroth dilution (NCCLS). The conditions noted are these: rifS strain, Cation-Adjusted Mueller-Hinton Broth, 37° C., read-out: Antimicrobial activity (MIC).
Experiment [11] concerns Mycobacterium smegmatis ATCC700084. Kind of experiment: MIC, microbroth dilution (NCCLS). The conditions noted are these: Mycolicibacterium smegmatis, rifS strain, Middlebrook Broth plus ADC Enrichment, 37° C., read-out: Antimicrobial activity (MIC).

Each structure is given as a SMILES string. ≈ marks a conversion by molar mass, not a printed value.

For `CO[C@H]1/C=C/O[C@@]2(C)Oc3c(C)c(O)c4c(c3C2=O)C(=O)C(N2CC(C(=O)NC3CCN(c5c(F)cc6c(=O)c(C(=O)O)cn(C7CC7)c6c5Cl)C3)C2)=C(NC(=O)/C(C)=C\C=C\[C@H](C)[C@H](O)[C@@H](C)[C@@H](O)[C@@H](C)[C@H](OC(C)=O)[C@@H]1C)C4=O` (mixture of isomers) [Example 43, (R/S)-3-{3-[1-(3-Carboxy-8-chloro-1-cyclopropyl-6-fluoro-4-oxo-1,4-dihydroquinolin-7-yl)-pyrrolidin-3-ylcarbamoyl]-azetidin-1-yl}rifamycin S], the MIC in [1] was 0.004 to 0.5 mg/L (≈ 0.0035 to 0.438 µM); in experiment [2], 0.06 to 32 mg/L (≈ 0.0525 to 28 µM); in experiment [3], 0.06 to 16 mg/L (≈ 0.0525 to 14 µM); in experiment [4], 0.004 to 0.5 mg/L (≈ 0.0035 to 0.438 µM); in experiment [5], 0.008 to 0.063 mg/L (≈ 0.007 to 0.0551 µM); in experiment [6], 0.008 to 0.125 mg/L (≈ 0.007 to 0.109 µM). Besides, the MIC in experiment [7] fell in the range of 0.008 to 0.063 mg/L (≈ 0.007 to 0.0551 µM); in [8], 2 to 32 mg/L (≈ 1.75 to 28 µM); in experiment [9] it was 0.125 to 2 mg/L (≈ 0.109 to 1.75 µM); in experiment [10], 0.125 to 8 mg/L (≈ 0.109 to 7 µM); in experiment [11] it was 0.5 to 64 mg/L.

Regarding `COc1c(N2CCC(NC(=O)C3CN(C4=C5NC(=O)/C(C)=C\C=C\[C@H](C)[C@H](O)[C@@H](C)[C@@H](O)[C@@H](C)[C@H](OC(C)=O)[C@H](C)[C@@H](OC)/C=C/O[C@@]6(C)Oc7c(C)c(O)c(c(c7C6=O)C4=O)C5=O)C3)C2)c(F)cc2c(=O)c(C(=O)O)cn(C3CC3)c12` (mixture of isomers) [Example 44, (R/S)-3-{3-[1-(3-Carboxy-1-cyclopropyl-6-fluoro-8-methoxy-4-oxo-1,4-dihydroquinolin-7-yl)-pyrrolidin-3-ylcarbamoyl]-azetidin-1-yl}rifamycin S], the MIC in experiment [1] was in the range of 0.004 to 0.5 mg/L (≈ 0.00351 to 0.439 µM); in [2], 0.06 to 32 mg/L (≈ 0.0527 to 28.1 µM); in experiment [3], 0.06 to 16 mg/L (≈ 0.0527 to 14.1 µM); in [4] it was 0.004 to 0.5 mg/L (≈ 0.00351 to 0.439 µM); in [5] it was 0.008 to 0.063 mg/L (≈ 0.00703 to 0.0554 µM); in experiment [6], 0.008 to 0.125 mg/L (≈ 0.00703 to 0.11 µM). Further, the MIC was 0.008 to 0.063 mg/L (≈ 0.00703 to 0.0554 µM) in [7]; 2 to 32 mg/L (≈ 1.76 to 28.1 µM) in experiment [8]; 0.125 to 2 mg/L (≈ 0.11 to 1.76 µM) in [9]; 0.125 to 8 mg/L (≈ 0.11 to 7.03 µM) in experiment [10]; 0.5 to 64 mg/L in [11].

Regarding `CO[C@H]1/C=C/O[C@@]2(C)Oc3c(C)c(O)c4c(c3C2=O)C(=O)C(N2CCC(C(=O)NC3CCN(c5c(F)cc6c(=O)c(C(=O)O)cn(C7CC7)c6c5Cl)C3)CC2)=C(NC(=O)/C(C)=C\C=C\[C@H](C)[C@H](O)[C@@H](C)[C@@H](O)[C@@H](C)[C@H](OC(C)=O)[C@@H]1C)C4=O` (mixture of isomers) [Example 49, (R/S)-3-{4-[1-(3-Carboxy-8-chloro-1-cyclopropyl-6-fluoro-4-oxo-1,4-dihydroquinolin-7-yl)-pyrrolidin-3-ylcarbamoyl]-piperidin-1-yl}rifamycin S], the MIC was 0.004 to 0.5 mg/L (≈ 0.00342 to 0.427 µM) in [1]; 0.06 to 32 mg/L (≈ 0.0513 to 27.3 µM) in experiment [2]; 0.06 to 16 mg/L (≈ 0.0513 to 13.7 µM) in [3]; 0.004 to 0.5 mg/L (≈ 0.00342 to 0.427 µM) in [4]; 0.008 to 0.063 mg/L (≈ 0.00683 to 0.0538 µM) in experiment [5]; 0.008 to 0.125 mg/L (≈ 0.00683 to 0.107 µM) in [6]. For the same compound, the MIC in experiment [7] is 0.008 to 0.063 mg/L (≈ 0.00683 to 0.0538 µM); in experiment [8], 2 to 32 mg/L (≈ 1.71 to 27.3 µM); in experiment [9] it was 0.125 to 2 mg/L (≈ 0.107 to 1.71 µM); in experiment [10], 0.125 to 8 mg/L (≈ 0.107 to 6.83 µM); in [11] it was 0.5 to 64 mg/L.

Consider `COc1c(N2CCC(NC(=O)C3CCN(C4=C5NC(=O)/C(C)=C\C=C\[C@H](C)[C@H](O)[C@@H](C)[C@@H](O)[C@@H](C)[C@H](OC(C)=O)[C@H](C)[C@@H](OC)/C=C/O[C@@]6(C)Oc7c(C)c(O)c(c(c7C6=O)C4=O)C5=O)CC3)C2)c(F)cc2c(=O)c(C(=O)O)cn(C3CC3)c12` (mixture of isomers) [Example 50, (R/S)-3-{4-[1-(3-Carboxy-1-cyclopropyl-6-fluoro-8-methoxy-4-oxo-1,4-dihydroquinolin-7-yl)-pyrrolidin-3-ylcarbamoyl]-piperidin-1-yl}rifamycin S], for which the MIC in [1] was in the range of 0.004 to 0.5 mg/L (≈ 0.00343 to 0.429 µM); in experiment [2], 0.06 to 32 mg/L (≈ 0.0514 to 27.4 µM); in [3] it was 0.06 to 16 mg/L (≈ 0.0514 to 13.7 µM); in [4], 0.004 to 0.5 mg/L (≈ 0.00343 to 0.429 µM); in experiment [5] it was 0.008 to 0.063 mg/L (≈ 0.00686 to 0.054 µM); in [6] it was 0.008 to 0.125 mg/L (≈ 0.00686 to 0.107 µM). For the same compound, the MIC in experiment [7] was in the range of 0.008 to 0.063 mg/L (≈ 0.00686 to 0.054 µM); in experiment [8] it was 2 to 32 mg/L (≈ 1.71 to 27.4 µM); in experiment [9], 0.125 to 2 mg/L (≈ 0.107 to 1.71 µM); in experiment [10], 0.125 to 8 mg/L (≈ 0.107 to 6.86 µM); in experiment [11], 0.5 to 64 mg/L.

In the case of `COc1c(N2CCCC(NC(=O)C3CCN(C4=C5NC(=O)/C(C)=C\C=C\[C@H](C)[C@H](O)[C@@H](C)[C@@H](O)[C@@H](C)[C@H](OC(C)=O)[C@H](C)[C@@H](OC)/C=C/O[C@@]6(C)Oc7c(C)c(O)c(c(c7C6=O)C4=O)C5=O)CC3)C2)c(F)cc2c(=O)c(C(=O)O)cn(C3CC3)c12` (mixture of isomers) [Example 52], the MIC was 0.004 to 0.5 mg/L (≈ 0.00339 to 0.424 µM) in experiment [1]; 0.06 to 32 mg/L (≈ 0.0508 to 27.1 µM) in [2]; 0.06 to 16 mg/L (≈ 0.0508 to 13.6 µM) in experiment [3]; 0.004 to 0.5 mg/L (≈ 0.00339 to 0.424 µM) in experiment [4]; 0.008 to 0.063 mg/L (≈ 0.00678 to 0.0534 µM) in experiment [5]; 0.008 to 0.125 mg/L (≈ 0.00678 to 0.106 µM) in experiment [6]. Besides, the MIC was in the range of 0.008 to 0.063 mg/L (≈ 0.00678 to 0.0534 µM) in [7]; 2 to 32 mg/L (≈ 1.69 to 27.1 µM) in [8]; 0.125 to 2 mg/L (≈ 0.106 to 1.69 µM) in experiment [9]; 0.125 to 8 mg/L (≈ 0.106 to 6.78 µM) in experiment [10]; 0.5 to 64 mg/L in experiment [11].
